Common to all, as to assay type: cell-based
One assay deals with Aspergillus flavus. Put plainly: MIC measurement, YAG medium. The settings on record: MIC banded into grades, lowest concentration inhibiting growth by >70%; for MIC: Aspergillus flavus. In short, it runs like this:
(§1)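 Spores from 5-day Sabouraud agar cultures were diluted in YAG medium (1% glucose, 1% ammonium chloride, 0.5% yeast extract) to a final inoculum of 1-2×10^4 cfu/mL, with drug at 50-0.05 mg/L. Plates were incubated 24 h at 35° C and read as OD 485 nm. MIC is the lowest concentration giving >70% inhibition versus drug-free control, in mg/L.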

The test system of assay [1] is Aspergillus fumigatus AF210. Put plainly: MIC measurement, YAG medium. The following applies: MIC banded into grades; for MIC: Aspergillus fumigatus, strain AF210, read-out: MIC A. fumigatus 210. In short, it runs like this: as §1
The next assay has as its system Aspergillus fumigatus. Put plainly: MIC measurement, YAG medium. The settings on record: YAG medium, MIC banded into grades, strain AF293; for MIC: Aspergillus fumigatus, read-out: MIC A. fumigatus. In short, it runs like this:
as §1

The next assay concerns Aspergillus niger. Put plainly: MIC measurement, YAG medium. The settings on record: MIC banded into grades; for MIC: Aspergillus niger. The method in brief:
as §1

A further assay concerns Aspergillus terreus AT49. Put plainly: MIC measurement, YAG medium. The following applies: MIC banded into grades; for MIC: Aspergillus terreus, strain AT49, read-out: MIC A. terreus 49. In short, it runs like this: as §1
Another assay deals with Aspergillus terreus. Put plainly: MIC measurement, YAG medium. The settings on record: MIC banded into grades, strain not named in head (AT4); for MIC: Aspergillus terreus. In short, it runs like this:
as §1

The next assay deals with Fusarium solani. Put plainly: 24 hr MIC measurement, RPMI medium. The following applies: Fusarium solani FS2, MIC banded into grades. The method, then: Between 1 and 5 mgs of compound were accurately weighed out into a sterile Eppendorf tube. The compound was dissolved in DMSO to give a solution containing […]. Tubes were stored at −20° C. until required.
On the day of testing thawed solutions were vortex mixed to ensure homogeneity. 30 μL of solution was removed and added to 570 μL of sterile water in a separate sterile Eppendorf. The thoroughly mixed solution was used to prepare a series of doubling dilutions in water, in a deep well plate. Thirteen replicate plates were prepared using a Minitrak by aspirating 20 μL from each well into eleven clear polystyrene 96 well plates.
Spores of Aspergillus spp. […]
This produced MIC plates with a drug range 50-0.05 mg/L and organism inocula of 1-2×10^4 cfu/mL for Aspergillus spp. and other filamentous fungi and 1-2×10^3 cfu/mL for yeasts. […] Growth was assessed by monitoring the optical density at 485 nm for each well. […] MICs are recorded as mg/L. Other growth media can be used for susceptibility testing, and the activity of the described compounds can also be assessed in a medium comprising 1% glucose, 1% ammonium chloride and 0.5% yeast extract (YAG medium). […] Growth was assessed by monitoring the optical density at 485 nm for each well. […]

Values after ≈ are worked out from the molar mass of the structure shown.

The term MIC denotes the least concentration at which growth counts as inhibited. `C[C@@H]1CN(C2CCN(c3ccc(NC(=O)C(=O)c4c(-c5ccccc5)cc5ccccn45)cc3)CC2)C[C@H](C)O1` [Example 24, N-{4-[4-(2,6-Dimethyl-morpholin-4-yl)-piperidin-1-yl]-phenyl}-2-oxo-2-(2-phenyl-indolizin-3-yl)-acetamide]: the MIC (in the assay with Aspergillus flavus; in assay [1]; in the assay with Aspergillus fumigatus; against Aspergillus niger; in the assay on Aspergillus terreus AT49; in the assay on Aspergillus terreus) was < 1 µg/mL throughout. The same compound registered an MIC with Fusarium solani of 1 to 10 µg/mL (≈ 1.86 to 18.6 µM).

Consider `C=C1CCN(c2ccc(NC(=O)C(=O)c3c(-c4ccccc4)cc4ccccn34)cc2)CC1` [Example 3, N-[4-(4-methylene-piperidin-1-yl)-phenyl]-2-oxo-2-(2-phenyl-indolizin-3yl) acetamide], for which the MIC (against Aspergillus flavus; in assay [1]; in the assay with Aspergillus fumigatus; against Aspergillus niger; in the assay on Aspergillus terreus AT49; against Aspergillus terreus) was < 1 µg/mL each time. Further, the MIC with Fusarium solani is < 1 µg/mL.

For the compound `Cc1cc(C)nc(N(C)CCCc2ccc(NC(=O)C(=O)c3c(-c4ccccc4)cc4ccccn34)cc2)c1` [Example 70, N-(4-{3-[(4,6-Dimethyl-pyridin-2-yl)-methyl-amino]-propyl}-phenyl)-2-oxo-2-(2-phenyl-indolizin-3-yl)-acetamide], the MIC (against Aspergillus flavus; in assay [1]; with Aspergillus fumigatus; in the assay on Aspergillus niger; in the assay on Aspergillus terreus AT49; with Aspergillus terreus) was < 1 µg/mL throughout.

Take `O=C(Nc1ccc(N2CCN(c3ccccn3)CC2)cc1)C(=O)c1c(-c2ccccc2)cc2ccccn12` [Example 41, 2-Oxo-2-(2-phenyl-indolizin-3yl)-N-[4-(4-pyridin-2-yl-piperizin-1-yl)-phenyl]-acetamide]: the MIC (against Aspergillus flavus; in assay [1]; in the assay on Aspergillus fumigatus; in the assay with Aspergillus niger; with Aspergillus terreus AT49; with Aspergillus terreus) was < 1 µg/mL each time.

With `Cc1ccccc1-c1cc2ccccn2c1C(=O)C(=O)Nc1ccc(N2CCN(Cc3ccco3)CC2)cn1` [Example 35, N-[5-(2-Furan-2-yl-methyl-piperazin-yl)-peridin-2-yl]-2-oxo-2-(2-o-tolyl-indolizin-3-yl)-acetamide], in the assay with Aspergillus flavus, the “MIC A. flavus” value is reported as 3 (A grade of 3 represents an MIC of less than 1 mg/L). For the same compound, the “MIC A. fumigatus 210” value in assay [1] (strain AF210) is listed as 3 (A grade of 3 represents an MIC of less than 1 mg/L). For the same compound, the “MIC A. fumigatus” value in the assay with Aspergillus fumigatus is on record as 3 (A grade of 3 represents an MIC of less than 1 mg/L). For the same compound, the “MIC A. niger” value with Aspergillus niger is on record as 3 (A grade of 3 represents an MIC of less than 1 mg/L). Further, the “MIC A. terreus 49” value with Aspergillus terreus AT49 (strain AT49) is listed as 3 (A grade of 3 represents an MIC of less than 1 mg/L). In addition, the “MIC A. terreus” value against Aspergillus terreus is 3 (A grade of 3 represents an MIC of less than 1 mg/L).

Source of the values: US8604029B2, “2-[(2-substituted)-indolizin-3-yl]-2-oxo-acetamide derivatives as antifungal agents” (F2G Ltd British Body Corporate, priority 2006, dated 2013).
